20 substances from patent US12594349B2, “Compositions and methods for the targeting of PCSK9” (Scribe Therapeutics Inc., priority 2022, dated 2026) can be followed below.

The data set relates to human PCSK9 locus. Description: Secreted PCSK9 by ELISA in Huh7 cells transfected with mRNA and gRNA. The note with it: for Secreted PCSK9 / Percent reduction in PCSK9 secretion / Average percent reduction in PCSK9 secretion: Huh7 cells; for Secreted PCSK9: 6 days post-transfection, normalized to total cell count; for Percent reduction in PCSK9 secretion / Average percent reduction in PCSK9 secretion: LTRP5-ADD-ZIM3 mRNA; for Percent reduction in PCSK9 secretion: day 6, relative to non-targeting gRNA control; for Average percent reduction in PCSK9 secretion: day 6, averaged from the two doses. Type of data set: cell-based. The protocol: To assess PCSK9 secretion, seeded Huh7 cells were transfected with mRNA encoding a catalytically-active CasX 676, dXR1, or LTRP5-ADD-ZIM3 and a gRNA with scaffold 316 and spacer targeting either the B2M or PCSK9 locus. Media supernatant was harvested at 6, 18, 36, and 87 days post-transfection to assess level of PCSK9 secretion by ELISA. Levels of PCSK9 secretion were normalized to total cell count. As an additional control, PCSK9 secretion was also measured in the media supernatant harvested from wells containing untreated, naïve cells.
The following three human hepatocyte cancer cell lines were used in this experiment: HepG2 cells, Hep3B cells, and Huh7 cells. ˜15,000 cells of each cell line were seeded per well; the next day, seeded cells were transfected with mRNA encoding a catalytically-active CasX 676, dXR1, or LTRP5-ADD-ZIM3 and a gRNA with scaffold 316 and spacer targeting either the B2M or PCSK9 locus (see Table 23 for specific spacers and sequences). Media supernatant was harvested at 4 days post-transfection to assess level of PCSK9 secretion by ELISA, and levels of PCSK9 secretion were normalized to total cell count and illustrated in FIGS. 11A-11C. Culturing of treated Huh7 cells continued, and media supernatant was harvested at 14 and 27 days post-transfection for measuring PCSK9 secretion by ELISA. As an additional experimental control, PCSK9 secretion was also measured in the media supernatant harvested from wells containing untreated, naïve cells.
To assess PCSK9 secretion, seeded Huh7 cells were co-transfected with mRNA encoding for LTRP5-ADD-ZIM3 and a gRNA with scaffold 316 and spacer targeting the PCSK9 locus using Lipofectamine™ 3000. Two doses of total RNA input at a 2:1 mass ratio of mRNA to gRNA were used for screening: 50 ng mRNA:25 ng gRNA and 25 ng mRNA:12.5 ng gRNA. Media supernatant was harvested at 6 days post-transfection to assess level of PCSK9 secretion by ELISA (Table 74). Levels of PCSK9 secretion were normalized to total cell count. As an additional control, PCSK9 secretion was also measured in the media supernatant harvested from cells transfected with mRNA encoding for mScarlet.
On the technique in general: In an ELISA, binding on a coated surface is turned into a signal by an enzyme label.

The mark [1] stands for this setting: LTRP5-ADD-ZIM3 mRNA + gRNA scaffold 316, 25 ng mRNA:12.5 ng gRNA.
Where [2] appears, read: LTRP5-ADD-ZIM3 mRNA + gRNA scaffold 316, 50 ng mRNA:25 ng gRNA.

With “TG-06-140 (guide AAACUUAGCCUGGACCCCCU; listed as RNA, chemistry not given here)”, the “Average percent reduction in PCSK9 secretion” value (“Average percent reduction” for short) was determined as 20.45%. For the same substance, the “Secreted PCSK9” value under setting [1] was determined as 59.94 ng/mL. The “Secreted PCSK9” value under setting [2] amounted to 61.68 ng/mL. Besides, the “Percent reduction in PCSK9 secretion” value (25 ng mRNA:12.5 ng gRNA) worked out at 15.87%. In addition, the “Percent reduction in PCSK9 secretion” value (50 ng mRNA:25 ng gRNA) is 25.04%.
For “TG-06-141 (guide ACUGGCCUUAACCUGGCAGC; listed as RNA, chemistry not given here)”, the “Average percent reduction” value came out at 82.75%. Further, the “average reduction in secreted PCSK9 levels” value (Huh7, LTRP5-ADD-ZIM3 mRNA + gRNA scaffold 316 v1, 6 days post-transfection, averaged from two doses, relative to non-targeting gRNA) is given as 82.75%. Further, the “Secreted PCSK9” value under setting [1] was found to be 12.58 ng/mL. The “Secreted PCSK9” value under setting [2] is 13.86 ng/mL. The “Percent reduction in PCSK9 secretion” value (25 ng mRNA:12.5 ng gRNA) was found to be 82.34%. For the same substance, the “Percent reduction in PCSK9 secretion” value (50 ng mRNA:25 ng gRNA) came out at 83.16%.
With “TG-06-142 (guide UUCCACUGGCCUUAACCUGG; listed as RNA, chemistry not given here)”, the “Average percent reduction” value stood at 62.1%. Besides, the “Secreted PCSK9” value under setting [1] is recorded as 27.27 ng/mL. Moreover, the “Secreted PCSK9” value under setting [2] was 30.87 ng/mL. For the same substance, the “Percent reduction in PCSK9 secretion” value (25 ng mRNA:12.5 ng gRNA) is given as 61.73%. The “Percent reduction in PCSK9 secretion” value (50 ng mRNA:25 ng gRNA) is listed as 62.48%.
Regarding “TG-06-143 (guide GAAUCAAUCCUACUGUGGAC; listed as RNA, chemistry not given here)”, the “Average percent reduction” value amounted to 60.81%. In addition, under setting [1], the “Secreted PCSK9” value is 22.33 ng/mL. Besides, the “Secreted PCSK9” value under setting [2] is given as 38.69 ng/mL. Besides, the “Percent reduction in PCSK9 secretion” value (25 ng mRNA:12.5 ng gRNA) is listed as 68.66%. Where the note is “50 ng mRNA:25 ng gRNA”, the “Percent reduction in PCSK9 secretion” value was found to be 52.97%.
“TG-06-144 (guide GUGGGCAGCGAGGAGUCCAC; listed as RNA, chemistry not given here)”: the “Average percent reduction” value is reported as 65.41%. Also, the “Secreted PCSK9” value under setting [1] is recorded as 29 ng/mL. The “Secreted PCSK9” value under setting [2] was found to be 23.42 ng/mL. In addition, the “Percent reduction in PCSK9 secretion” value (25 ng mRNA:12.5 ng gRNA) was 59.29%. In addition, the “Percent reduction in PCSK9 secretion” value (50 ng mRNA:25 ng gRNA) is reported as 71.53%.
On to “TG-06-145 (guide UGGGUCCACCUUGUCUCCUG; listed as RNA, chemistry not given here)”, for which the “Average percent reduction” value turned out to be 77.39%. Moreover, the “Secreted PCSK9” value under setting [1] is reported as 18.54 ng/mL. Besides, the “Secreted PCSK9” value under setting [2] turned out to be 15.8 ng/mL. Moreover, the “Percent reduction in PCSK9 secretion” value (25 ng mRNA:12.5 ng gRNA) came to 73.98%. Also, the “Percent reduction in PCSK9 secretion” value (50 ng mRNA:25 ng gRNA) stood at 80.8%.
Consider “TG-06-146 (guide GAAGUCUCACUGGUCAGCAG; listed as RNA, chemistry not given here)”, for which the “Average percent reduction” value was determined as 60.9%. For the same substance, under setting [1], the “Secreted PCSK9” value is reported as 20.34 ng/mL. The “Secreted PCSK9” value under setting [2] is 40.84 ng/mL. The “Percent reduction in PCSK9 secretion” value (25 ng mRNA:12.5 ng gRNA) is 71.45%. Also, the “Percent reduction in PCSK9 secretion” value (50 ng mRNA:25 ng gRNA) worked out at 50.36%.
On the same counts, the results for “TG-06-147 (guide GUGUUUCCUGGGUCCACCUU; listed as RNA, chemistry not given here)” are 41.15%, 37.43 ng/mL, 53.6 ng/mL, 47.46% and 34.85%.
The like results for “TG-06-148 (guide GCCGGGCCCACCUUUUCAGU; listed as RNA, chemistry not given here)” were, in that order, 25.15%, 44.77 ng/mL, 71.46 ng/mL, 37.16% and 13.15%.
Consider “TG-06-149 (guide AGCCCAGUUAGGAUUUGGGA; listed as RNA, chemistry not given here)”, for which the “Average percent reduction” value is listed as 60.23%. Also, under setting [1], the “Secreted PCSK9” value is recorded as 38.33 ng/mL. Moreover, under setting [2], the “Secreted PCSK9” value was 21.18 ng/mL. The “Percent reduction in PCSK9 secretion” value (25 ng mRNA:12.5 ng gRNA) was determined as 46.21%. Moreover, where the note is “50 ng mRNA:25 ng gRNA”, the “Percent reduction in PCSK9 secretion” value was 74.26%.
The like results for “TG-06-150 (guide UCCCUCUGCGCGUAAUCUGA; listed as RNA, chemistry not given here)” were, in that order, 61.08%, 39.59 ng/mL, 18.33 ng/mL, 44.42% and 77.73%.
The like results for “TG-06-151 (guide CUCUGCGCGUAAUCUGACGC; listed as RNA, chemistry not given here)” were, in that order, 20.91%, 66.42 ng/mL, 53.44 ng/mL, 6.77% and 35.05%.
“TG-06-152 (guide GCCUCGCCCUCCCCAAACAG; listed as RNA, chemistry not given here)”: the “Average percent reduction” value stood at 37.24%. The “Secreted PCSK9” value under setting [1] was 57.43 ng/mL. In addition, the “Secreted PCSK9” value under setting [2] is on record as 36.95 ng/mL. Moreover, the “Percent reduction in PCSK9 secretion” value (25 ng mRNA:12.5 ng gRNA) is given as 19.39%. Moreover, the “Percent reduction in PCSK9 secretion” value (50 ng mRNA:25 ng gRNA) is reported as 55.09%.
The like results for “TG-06-153 (guide GUUAAUGUUUAAUCAGAUAG; listed as RNA, chemistry not given here)” were, in that order, 5.27%, 86.58 ng/mL, 73.23 ng/mL, 21.52% and 10.99%.
On the same counts, the results for “TG-06-155 (guide GCAGCGACGUCGAGGCGCUC; listed as RNA, chemistry not given here)” are 42.55%, 56.36 ng/mL, 29.45 ng/mL, 20.89% and 64.21%.
For the substance “TG-06-158 (guide GGAGCAGGGCGCGUGAAGGG; listed as RNA, chemistry not given here)”, the “Average percent reduction” value was 72.03%. Moreover, the “Secreted PCSK9” value under setting [1] is listed as 31.72 ng/mL. Besides, the “Secreted PCSK9” value under setting [2] came out at 9.39 ng/mL. Also, the “Percent reduction in PCSK9 secretion” value (25 ng mRNA:12.5 ng gRNA) is reported as 55.48%. Besides, the “Percent reduction in PCSK9 secretion” value (50 ng mRNA:25 ng gRNA) is on record as 88.59%.
The like results for “TG-06-159 (guide GCGCGCCCCUUCACGCGCCC; listed as RNA, chemistry not given here)” were, in that order, 10.97%, 80.84 ng/mL, 53.15 ng/mL, 13.47% and 35.4%.
On the same counts, the results for “TG-06-160 (guide CGCGCCCUGCUCCUGAACUU; listed as RNA, chemistry not given here)” are 53.31%, 48.67 ng/mL, 20.63 ng/mL, 31.69% and 74.93%.
The like results for “TG-06-161 (guide GCUCCUGCACAGUCCUCCCC; listed as RNA, chemistry not given here)” were, in that order, 44.73%, 53.16 ng/mL, 29.55 ng/mL, 25.38% and 64.08%.
Turning to “TG-06-168 (guide GUGGGAAGGUUCGCGGGGUU; listed as RNA, chemistry not given here)”, the “Average percent reduction” value is listed as 52.62%. Further, the “Secreted PCSK9” value under setting [1] came out at 50.96 ng/mL. For the same substance, the “Secreted PCSK9” value under setting [2] was 19.1 ng/mL. For the same substance, the “Percent reduction in PCSK9 secretion” value (25 ng mRNA:12.5 ng gRNA) was found to be 28.47%. The “Percent reduction in PCSK9 secretion” value (50 ng mRNA:25 ng gRNA) amounted to 76.78%.
